Values quoted from earlier work as cited in patent publication US12648912B2 (Mylan Laboratories Limited, priority 2020, dated 2026).

Assays:
[1] = not given; remark: listed apart in the source

## Cc1cnc(NC(=O)C2=C(O)c3ccccc3S(=O)(=O)N2C)s1 [Meloxicam, 4-hydroxy-2-methyl-N-(5-methyl-2-thiazolyl)-2H-1,2-benzothiazine-3-carboxamide-1,1-dioxide]
methanol
  solubility in methanol: very slightly soluble
water
  solubility in water: practically insoluble
[1]; 15 mg tablets, fasted state
  Tmax in fasted state relative to after breakfast: doubled
[1]; orally delivered, humans
  Tmax (time to reach maximum concentration): 4 to 6 h
[1]; post-dose, suggested gastrointestinal recirculation
  second meloxicam concentration peak, time post-dose: 12 to 14 h
